ChEMBL document CHEMBL3885861, “Open TG-GATES”

Species: Rattus norvegicus
Test: Open TG-GATES - Regimen: Daily Repeat
Format: toxicity, organism-based, Sprague-Dawley
Set-up: regimen Daily Repeat, gender Male, age 6 weeks
Conditions: in vivo, po, route gavage; for APTT / Bas / Eos / Fbg / Hb / Ht / Lym / MCHC / MCV / Mono / Neu / PT / Plat / RBC / Ret / WBC: tissue Blood; for KIDNEY_L / KIDNEY_R / KIDNEY_TOTAL: tissue Kidney; for LIVER: tissue Liver; for ALP / ALT / AST / BUN / CRE / Ca / Cl / DBIL / GLC / IP / K / LDH / Na / PL / RALB / TBIL / TG / TP / gamma-GTP: tissue Plasma
[1] = 300 mg/kg, 72 h, dose level Middle, time 3 day
[2] = 300 mg/kg, […], dose level Middle, time 7 day
[3] = 300 mg/kg, […], dose level Middle, time 14 day
[4] = 300 mg/kg, […], dose level Middle, time 28 day
[5] = 1000 mg/kg, 72 h, dose level High, time 3 day
[6] = 1000 mg/kg, […], dose level High, time 7 day
[7] = 1000 mg/kg, […], dose level High, time 14 day
[8] = 1000 mg/kg, […], dose level High, time 28 day

**Q.** Which results are given for CN(C)C(=N)N=C(N)N [METFORMIN]?
**A.** TERMINAL_BW [1]: 223.9 g; APTT [1]: 17.6 s; Bas [1]: 0%; Eos [1]: 1%; Fbg [1]: 251.8 mg/dL; Hb [1]: 13.2 g/dL; Ht [1]: 39.3%; Lym [1]: 78.2%; MCHC [1]: 33.6%; MCV [1]: 63.4 fL; Mono [1]: 3.2%; Neu [1]: 17.2%; PT [1]: 12.7 s; Plat [1]: 115.7 x10_4/uL; RBC [1]: 621.4 x10_4/ul; Ret [1]: 7.1%; WBC [1]: 94 x10_2/uL; KIDNEY_L [1]: 1 g; KIDNEY_R [1]: 1 g; KIDNEY_TOTAL [1]: 2 g; LIVER [1]: 11.3 g; ALP [1]: 1558.4 IU/L; ALT [1]: 52.2 IU/L; AST [1]: 78.4 IU/L; BUN [1]: 15.8 mg/dL; CRE [1]: 0.2 mg/dL; Ca [1]: 11.1 mg/dL; Cl [1]: 104.8 meq/L; DBIL [1]: 0.016 mg/dL; GLC [1]: 193.2 mg/dL; IP [1]: 8.3 mg/dL; K [1]: 3.9 meq/L; LDH [1]: 62.2 IU/L; Na [1]: 141.6 meq/L; PL [1]: 140.8 mg/dL; RALB [1]: 2.6 g/dL; TBIL [1]: 0.038 mg/dL; TG [1]: 68.2 mg/dL; TP [1]: 5.6 g/dL; gamma-GTP [1]: 1 IU/L; TERMINAL_BW [2]: 256.3 g; TERMINAL_BW [3]: 308.9 g; TERMINAL_BW [4]: 387.2 g; APTT [2]: 16 s; Bas [2]: 0%; Eos [2]: 1%; Fbg [2]: 279.8 mg/dL; Hb [2]: 13.8 g/dL; Ht [2]: 41%; Lym [2]: 77.6%; MCHC [2]: 33.7%; MCV [2]: 62.5 fL; Mono [2]: 3.6%; Neu [2]: 17.4%; PT [2]: 12 s; Plat [2]: 126.1 x10_4/uL; RBC [2]: 656.2 x10_4/ul; Ret [2]: 5.6%; WBC [2]: 77.5 x10_2/uL; APTT [3]: 17.2 s; Bas [3]: 0.2%; Eos [3]: 1.2%; Fbg [3]: 248.8 mg/dL; Hb [3]: 14.3 g/dL; Ht [3]: 41.6%; Lym [3]: 78.6%; MCHC [3]: 34.4%; MCV [3]: 60.4 fL; Mono [3]: 2.6%; Neu [3]: 17%; PT [3]: 12.2 s; Plat [3]: 116.5 x10_4/uL; RBC [3]: 690.4 x10_4/ul; Ret [3]: 4.6%; WBC [3]: 107 x10_2/uL; APTT [4]: 19.8 s; Bas [4]: 0.2%; Eos [4]: 1%; Fbg [4]: 261.8 mg/dL; Hb [4]: 15.3 g/dL; Ht [4]: 44.3%; Lym [4]: 79.4%; MCHC [4]: 34.5%; MCV [4]: 57 fL; Mono [4]: 2.6%; Neu [4]: 16.2%; PT [4]: 12.2 s; Plat [4]: 100.1 x10_4/uL; RBC [4]: 777.2 x10_4/ul; Ret [4]: 2.5%; WBC [4]: 112.9 x10_2/uL; KIDNEY_L [2]: 1 g; KIDNEY_R [2]: 1 g; KIDNEY_TOTAL [2]: 2.1 g; KIDNEY_L [3]: 1.2 g; KIDNEY_R [3]: 1.2 g; KIDNEY_TOTAL [3]: 2.4 g; KIDNEY_L [4]: 1.4 g; KIDNEY_R [4]: 1.4 g; KIDNEY_TOTAL [4]: 2.9 g; LIVER [2]: 12.7 g; LIVER [3]: 14 g; LIVER [4]: 16.4 g; ALP [2]: 1101.6 IU/L; ALT [2]: 61 IU/L; AST [2]: 83.2 IU/L; BUN [2]: 15.6 mg/dL; CRE [2]: 0.2 mg/dL; Ca [2]: 10.8 mg/dL; Cl [2]: 106.2 meq/L; DBIL [2]: 0.014 mg/dL; GLC [2]: 182.8 mg/dL; IP [2]: 8.2 mg/dL; K [2]: 4.6 meq/L; LDH [2]: 102.8 IU/L; Na [2]: 141.8 meq/L; PL [2]: 144.4 mg/dL; RALB [2]: 2.7 g/dL; TBIL [2]: 0.028 mg/dL; TG [2]: 119.6 mg/dL; TP [2]: 5.7 g/dL; gamma-GTP [2]: 0.8 IU/L; ALP [3]: 1291.2 IU/L; ALT [3]: 50.4 IU/L; AST [3]: 73 IU/L; BUN [3]: 16.4 mg/dL; CRE [3]: 0.2 mg/dL; Ca [3]: 10.9 mg/dL; Cl [3]: 104.8 meq/L; DBIL [3]: 0.016 mg/dL; GLC [3]: 190.4 mg/dL; IP [3]: 7.1 mg/dL; K [3]: 3.8 meq/L; LDH [3]: 72.2 IU/L; Na [3]: 142.4 meq/L; PL [3]: 157.6 mg/dL; RALB [3]: 2.7 g/dL; TBIL [3]: 0.032 mg/dL; TG [3]: 134.4 mg/dL; TP [3]: 5.9 g/dL; gamma-GTP [3]: 1 IU/L; ALP [4]: 1096.8 IU/L; ALT [4]: 47.2 IU/L; AST [4]: 68.8 IU/L; BUN [4]: 15.6 mg/dL; CRE [4]: 0.2 mg/dL; Ca [4]: 11.1 mg/dL; Cl [4]: 105.6 meq/L; DBIL [4]: 0.016 mg/dL; GLC [4]: 187.6 mg/dL; IP [4]: 6.8 mg/dL; K [4]: 3.8 meq/L; LDH [4]: 52 IU/L; Na [4]: 145.4 meq/L; PL [4]: 150.4 mg/dL; RALB [4]: 2.8 g/dL; TBIL [4]: 0.036 mg/dL; TG [4]: 158.2 mg/dL; TP [4]: 6.2 g/dL; gamma-GTP [4]: 1 IU/L; TERMINAL_BW [5]: 213.8 g; APTT [5]: 17.6 s; Bas [5]: 0%; Eos [5]: 1%; Fbg [5]: 223.8 mg/dL; Hb [5]: 13.4 g/dL; Ht [5]: 39.4%; Lym [5]: 72.8%; MCHC [5]: 34.1%; MCV [5]: 63.1 fL; Mono [5]: 4%; Neu [5]: 22%; PT [5]: 12.4 s; Plat [5]: 121.1 x10_4/uL; RBC [5]: 624.8 x10_4/ul; Ret [5]: 5.5%; WBC [5]: 107 x10_2/uL; KIDNEY_L [5]: 0.9 g; KIDNEY_R [5]: 0.9 g; KIDNEY_TOTAL [5]: 1.8 g; LIVER [5]: 11.6 g; ALP [5]: 1276.4 IU/L; ALT [5]: 37.4 IU/L; AST [5]: 74 IU/L; BUN [5]: 16.6 mg/dL; CRE [5]: 0.2 mg/dL; Ca [5]: 11.1 mg/dL; Cl [5]: 104 meq/L; DBIL [5]: 0.012 mg/dL; GLC [5]: 180.2 mg/dL; IP [5]: 8.7 mg/dL; K [5]: 4.1 meq/L; LDH [5]: 63.4 IU/L; Na [5]: 140.2 meq/L; PL [5]: 137.8 mg/dL; RALB [5]: 2.5 g/dL; TBIL [5]: 0.032 mg/dL; TG [5]: 95.8 mg/dL; TP [5]: 5.4 g/dL; gamma-GTP [5]: 1.2 IU/L; TERMINAL_BW [6]: 243 g; TERMINAL_BW [7]: 288.9 g; TERMINAL_BW [8]: 357 g; APTT [6]: 15.3 s; Bas [6]: 0.2%; Eos [6]: 0.6%; Fbg [6]: 254.8 mg/dL; Hb [6]: 13.8 g/dL; Ht [6]: 41%; Lym [6]: 80.4%; MCHC [6]: 33.7%; MCV [6]: 61.8 fL; Mono [6]: 3.2%; Neu [6]: 15.2%; PT [6]: 12.1 s; Plat [6]: 116.4 x10_4/uL; RBC [6]: 664 x10_4/ul; Ret [6]: 5.5%; WBC [6]: 101.5 x10_2/uL; APTT [7]: 17 s; Bas [7]: 0%; Eos [7]: 0.8%; Fbg [7]: 252.2 mg/dL; Hb [7]: 14.4 g/dL; Ht [7]: 41.7%; Lym [7]: 75.4%; MCHC [7]: 34.5%; MCV [7]: 59.5 fL; Mono [7]: 3.4%; Neu [7]: 19.6%; PT [7]: 12.2 s; Plat [7]: 124 x10_4/uL; RBC [7]: 702 x10_4/ul; Ret [7]: 4.4%; WBC [7]: 121.9 x10_2/uL; APTT [8]: 17.8 s; Bas [8]: 0%; Eos [8]: 1.2%; Fbg [8]: 258.6 mg/dL; Hb [8]: 15 g/dL; Ht [8]: 43.7%; Lym [8]: 74.6%; MCHC [8]: 34.3%; MCV [8]: 57.7 fL; Mono [8]: 3.2%; Neu [8]: 20.6%; PT [8]: 12 s; Plat [8]: 105.5 x10_4/uL; RBC [8]: 757.4 x10_4/ul; Ret [8]: 2.6%; WBC [8]: 108.4 x10_2/uL; KIDNEY_L [6]: 1.1 g; KIDNEY_R [6]: 1 g; KIDNEY_TOTAL [6]: 2.1 g; KIDNEY_L [7]: 1.2 g; KIDNEY_R [7]: 1.1 g; KIDNEY_TOTAL [7]: 2.3 g; KIDNEY_L [8]: 1.4 g; KIDNEY_R [8]: 1.4 g; KIDNEY_TOTAL [8]: 2.8 g; LIVER [6]: 12.1 g; LIVER [7]: 14.4 g; LIVER [8]: 16.5 g; ALP [6]: 1316.4 IU/L; ALT [6]: 44.4 IU/L; AST [6]: 82.2 IU/L; BUN [6]: 15 mg/dL; CRE [6]: 0.2 mg/dL; Ca [6]: 10.9 mg/dL; Cl [6]: 104.2 meq/L; DBIL [6]: 0.012 mg/dL; GLC [6]: 193.2 mg/dL; IP [6]: 8.4 mg/dL; K [6]: 4.4 meq/L; LDH [6]: 57.4 IU/L; Na [6]: 140.8 meq/L; PL [6]: 141.6 mg/dL; RALB [6]: 2.6 g/dL; TBIL [6]: 0.024 mg/dL; TG [6]: 92.2 mg/dL; TP [6]: 5.5 g/dL; gamma-GTP [6]: 1 IU/L; ALP [7]: 1249.8 IU/L; ALT [7]: 39 IU/L; AST [7]: 75 IU/L; BUN [7]: 17.6 mg/dL; CRE [7]: 0.2 mg/dL; Ca [7]: 11 mg/dL; Cl [7]: 103.6 meq/L; DBIL [7]: 0.008 mg/dL; GLC [7]: 188.6 mg/dL; IP [7]: 6.9 mg/dL; K [7]: 4.1 meq/L; LDH [7]: 61.2 IU/L; Na [7]: 141.4 meq/L; PL [7]: 164 mg/dL; RALB [7]: 2.8 g/dL; TBIL [7]: 0.026 mg/dL; TG [7]: 148.6 mg/dL; TP [7]: 6 g/dL; gamma-GTP [7]: 1.2 IU/L; ALP [8]: 1090.4 IU/L; ALT [8]: 41.6 IU/L; AST [8]: 71.4 IU/L; BUN [8]: 17.4 mg/dL; CRE [8]: 0.2 mg/dL; Ca [8]: 11.1 mg/dL; Cl [8]: 104 meq/L; DBIL [8]: 0.014 mg/dL; GLC [8]: 194.2 mg/dL; IP [8]: 6.7 mg/dL; K [8]: 3.9 meq/L; LDH [8]: 50.2 IU/L; Na [8]: 145.2 meq/L; PL [8]: 152.6 mg/dL; RALB [8]: 2.7 g/dL; TBIL [8]: 0.034 mg/dL; TG [8]: 148 mg/dL; TP [8]: 6 g/dL; gamma-GTP [8]: 1 IU/L
